Measured values reported in the Kinase Knowledgebase extract (Sharma et al. 2016).

Target: PIK3CG (human) (UniProt P48736)
Assay: Assessment of PIK3CG Kinase Activity

Sequence of PIK3CG (human) (P48736 whole entry, looked up): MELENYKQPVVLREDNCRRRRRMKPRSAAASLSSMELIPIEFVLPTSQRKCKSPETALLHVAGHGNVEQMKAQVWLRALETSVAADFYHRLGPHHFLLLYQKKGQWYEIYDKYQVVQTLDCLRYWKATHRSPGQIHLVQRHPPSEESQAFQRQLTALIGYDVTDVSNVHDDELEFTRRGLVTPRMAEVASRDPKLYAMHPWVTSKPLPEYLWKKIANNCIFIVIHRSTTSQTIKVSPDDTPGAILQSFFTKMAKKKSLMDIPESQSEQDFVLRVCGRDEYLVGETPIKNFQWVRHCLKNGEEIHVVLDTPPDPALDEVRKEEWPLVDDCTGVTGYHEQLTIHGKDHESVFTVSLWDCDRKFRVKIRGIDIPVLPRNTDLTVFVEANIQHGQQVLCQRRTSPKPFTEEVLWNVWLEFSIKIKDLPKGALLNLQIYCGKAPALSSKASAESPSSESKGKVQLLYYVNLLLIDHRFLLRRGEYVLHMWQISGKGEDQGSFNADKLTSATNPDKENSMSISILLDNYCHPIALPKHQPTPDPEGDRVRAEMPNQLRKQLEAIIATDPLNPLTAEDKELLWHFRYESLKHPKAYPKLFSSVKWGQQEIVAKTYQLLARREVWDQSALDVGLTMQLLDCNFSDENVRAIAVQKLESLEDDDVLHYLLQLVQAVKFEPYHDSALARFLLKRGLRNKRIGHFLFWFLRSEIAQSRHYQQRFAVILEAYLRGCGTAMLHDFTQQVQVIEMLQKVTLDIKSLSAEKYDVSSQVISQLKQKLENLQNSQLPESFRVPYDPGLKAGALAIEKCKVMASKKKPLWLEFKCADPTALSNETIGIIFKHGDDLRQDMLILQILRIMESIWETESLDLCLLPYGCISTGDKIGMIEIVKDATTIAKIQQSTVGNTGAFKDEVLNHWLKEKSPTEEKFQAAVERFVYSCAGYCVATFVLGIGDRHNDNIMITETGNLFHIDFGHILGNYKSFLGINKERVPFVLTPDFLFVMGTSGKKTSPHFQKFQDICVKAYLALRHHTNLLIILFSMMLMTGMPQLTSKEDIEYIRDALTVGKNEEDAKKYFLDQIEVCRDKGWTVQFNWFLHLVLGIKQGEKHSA

IC50, < 800 nM:
O=C(Nc1nc2c(s1)-c1nc(-c3ccccc3Cl)ncc1CC2)N1CC[C@@H](NC(=O)N2CCOCC2)C1
O=C(NC[C@@H]1CCCN1C(=O)OCc1ccccc1)Nc1nc2c(s1)-c1nc(-c3ccccc3Cl)ncc1CC2
O=C(NCc1ccco1)Nc1nc2c(s1)-c1nc(-c3ccccc3Cl)ncc1CC2
CCc1cnc(CCNC(=O)Nc2nc3c(s2)-c2nc(-c4ccccc4Cl)ncc2CC3)o1
CN(C(=O)OC(C)(C)C)C1CCN(C(=O)Nc2nc3c(s2)-c2nc(-c4ccccc4Cl)ncc2CC3)C1 (stereo not given)
CN(C)C(=O)Nc1nc2c(s1)-c1nc(C(C)(C)C)ncc1CC2
CCNC(=O)Nc1nc2c(s1)-c1nc(-c3ccccc3Cl)ncc1CC2
CCc1cnc(CCNC(=O)Nc2nc3c(s2)-c2nc(-c4ccccc4F)ncc2CC3)o1
O=C(O)CC1(CNC(=O)Nc2nc3c(s2)-c2nc(-c4ccccc4Cl)ncc2CC3)CCCCC1
CC(C)C(=O)Nc1cccc(CNC(=O)Nc2nc3c(s2)-c2nc(-c4ccccc4Cl)ncc2CC3)c1
